These compounds were tested on GUTat 3.1 strain of the bloodstream form of T. brucei brucei (assay: alamarBlue in vitro viability test for trypanosome parasites). Details: Trypanosoma brucei, 48 h of incubation, read-out: IC50, antitrypanosomal activity.
Type: cell-based
Method: The GUTat 3.1 strain of the bloodstream form of T. brucei brucei parasites was used in this study. Parasites were cultured in vitro according to the conditions established previously ([36]). Parasites were used when they reached a confluent concentration of 1 × 10^6 parasites/ml. Estimation of parasitemia was done with the Neubauer counting chamber. Parasites were diluted to a concentration of 3 × 10^5 parasites/ml with HM1-9 medium and were used for the various experiments.
The alamarBlue assay (Life Technologies, USA) was carried out on treated or untreated trypanosome parasites to ascertain their viability. The assay was performed in a 96-well plate following the manufacturer's instructions with modification. Briefly, 1.5 × 10^4 parasites were seeded with varied concentrations of plant material (extracts, fractions, or compounds) ranging from 0.78 μg/ml to […]. Final concentrations of EtOH and dimethyl sulfoxide (DMSO) were kept at <1% and 0.1%, respectively. After incubation of parasites with or without plant extracts or compounds for 24 h at 37°C in 5% CO2, 10% alamarBlue dye was added, and the parasites were incubated another 24 h in darkness. After a total of 48 h, the plate was read for absorbance at 540 nm using the Tecan Sunrise Wako spectrophotometer. The trend curve was drawn to obtain a 50% inhibitory concentration (IC50) of each plant material (extracts, fractions, and compounds).

Row | SMILES | IC50 [µM]
1 | C[C@H]1[C@H](C)CC[C@]2(C(=O)O)CC[C@]3(C)C(=CC[C@@H]4[C@@]5(C)CC[C@H](O)C(C)(C)[C@@H]5CC[C@]43C)[C@H]12 [ursolic acid] | 15.4
2 | COc1c2cc(C=O)ccc2c(OC)c2c(O)cccc12 [oruwalol] | 518
3 | CC1(C)CC[C@]2(C(=O)O)CC[C@]3(C)C(=CC[C@@H]4[C@@]5(C)CC[C@H](O)C(C)(C)[C@@H]5CC[C@]43C)[C@@H]2C1 [oleanolic acid] | 13.7

— article PMC4879371, “Antitrypanosomal Activities and Mechanisms of Action of Novel Tetracyclic Iridoids from Morinda lucida Benth” (Antimicrobial Agents and Chemotherapy, 2016)
